Data from patent US20250147039A1, “Compounds for complexation of rare earth elements and/or s-, p-, d- block metals, their coordination compounds, peptide conjugates, method of their preparation and use thereof” (USTAV ORGANICKE CHEMIE A BIOCHEMIE AV CR V.V.I., priority 2021, published 2025).

Columns and labels:
Assay type in all cases: physicochemical
[1] = Dissociation of chelates in aq. 6.0M HCl at 80° C. (acid decomplexation kinetic inertness) (Chart 17)
[2] = Dissociation of chelates in aq. 1.0M HCl at 80° C. (acid decomplexation kinetic inertness) (Chart 18)
[3] = Dissociation of chelates in aq. 0.1M HCl at 80° C. (acid decomplexation kinetic inertness) (Chart 19)
[4] = Dissociation of chelates in aq. 0.1M HCl at RT (acid decomplexation kinetic inertness) (Chart 20)

SMILES	fraction of intact chelate ([1]; 1 month)	fraction of intact chelate ([1]; 1 week)	fraction of intact chelate ([1]; 1 hour)	fraction of intact chelate ([1]; 1 day)	fraction of intact chelate ([2]; 1 month)	fraction of intact chelate ([2]; 1 week)	fraction of intact chelate ([2]; 1 hour)	fraction of intact chelate ([2]; 1 day)	fraction of intact chelate ([3]; 1 month)	fraction of intact chelate ([3]; 1 week)	fraction of intact chelate ([3]; 1 hour)	fraction of intact chelate ([3]; 1 day)	fraction of intact chelate ([4]; 1 month)	fraction of intact chelate ([4]; 1 week)	fraction of intact chelate ([4]; 1 hour)	fraction of intact chelate ([4]; 1 day)
O=C1C[N@@]2CC[N@]3CC[N@@](CC[N@](CC2)Cc2cccc(n2)-c2cnnn2Cc2cc(-c4ccccc4)cc(n2)C3)CC(=O)[O][Tm][O]1 [TD601]	69%	92%	100%	99%	100%	100%	100%	100%	100%	100%	100%	100%	100%	100%	100%	100%
O=C1C[N@@]2CC[N@]3CC[N@@](CC[N@](CC2)Cc2cccc(n2)-c2cnnn2Cc2cc(-c4ccccc4)cc(n2)C3)CC(=O)[O][Yb][O]1 [TD602]	90%	98%	100%	100%	100%	100%	100%	100%	100%	100%	100%	100%	100%	100%	100%	100%
O=C1C[N@@]2CC[N@]3CC[N@@](CC[N@](CC2)Cc2cccc(n2)-c2cnnn2Cc2cc(-c4ccccc4)cc(n2)C3)CC(=O)[O][Ho][O]1 [TD648]	0%	17%	99%	81%	96%	99%	100%	100%	100%	100%	100%	100%	100%	100%	100%	100%
O=C1C[N@@]2CC[N@]3CC[N@@](CC[N@](CC2)Cc2cccc(n2)-c2cnnn2Cc2cc(-c4ccccc4)cc(n2)C3)CC(=O)[O][Y][O]1 [TD649]	0%	7%	98%	69%	92%	98%	100%	100%	100%	100%	100%	100%	100%	100%	100%	100%
O=C1C[N@@]2CC[N@]3CC[N@@](CC[N@](CC2)Cc2cccc(n2)-c2cnnn2Cc2cc(-c4ccccc4)cc(n2)C3)CC(=O)[O][La][O]1 [TD651]	0%	0%	0%	0%	0%	0%	0%	0%	0%	0%	0%	0%	0%	0%	76%	4%
O=C([O-])CN1CCN2CCN(CC(=O)[O-])CCN(CC1)Cc1cccc(n1)-c1cnnn1Cc1cc(-c3ccccc3)cc(n1)C2.[Ca+2] [TD863]	0%	0%	0%	0%	0%	0%	0%	0%	0%	0%	0%	0%	0%	0%	39%	0%
O=C1C[N@@]2CC[N@]3CC[N@@](CC[N@](CC2)Cc2cccc(n2)-c2cnnn2Cc2cc(-c4ccccc4)cc(n2)C3)CC(=O)[O][Er][O]1 [TD865]	24%	71%	99%	95%	99%	100%	100%	100%	100%	100%	100%	100%	100%	100%	100%	100%
O=C1C[N@@]2CC[N@]3CC[N@@](CC[N@](CC2)Cc2cccc(n2)-c2cnnn2Cc2cc(-c4ccccc4)cc(n2)C3)CC(=O)[O][Dy][O]1 [TD866]	0%	0%	95%	25%	87%	96%	100%	99%	100%	100%	100%	100%	100%	100%	100%	100%
O=C1C[N@@]2CC[N@]3CC[N@@](CC[N@](CC2)Cc2cccc(n2)-c2cnnn2Cc2cc(-c4ccccc4)cc(n2)C3)CC(=O)[O][Sm][O]1 [TD867]	0%	0%	0%	0%	0%	0%	62%	0%	1%	35%	99%	86%	96%	99%	100%	100%
O=C1C[N@@]2CC[N@]3CC[N@@](CC[N@](CC2)Cc2cccc(n2)-c2cnnn2Cc2cc(-c4ccccc4)cc(n2)C3)CC(=O)[O][Nd][O]1 [TD868]	0%	0%	0%	0%	0%	0%	0%	0%	0%	0%	76%	0%	2%	54%	99%	90%
O=C1C[N@@]2CC[N@]3CC[N@@](CC[N@](CC2)Cc2cccc(n2)-c2cnnn2Cc2cc(-c4ccccc4)cc(n2)C3)CC(=O)[O][Ce][O]1 [TD870]	0%	0%	0%	0%	0%	0%	0%	0%	0%	0%	0%	0%	0%	0%	95%	37%
O=C1C[N@@]2CC[N@]3CC[N@@](CC[N@](CC2)Cc2cccc(n2)-c2cn(nn2)Cc2cc(-c4ccccc4)cc(n2)C3)CC(=O)[O][Lu][O]1 [TD874]	0%	0%	0%	0%	0%	0%	0%	0%	0%	0%	0%	0%	0%	14%	99%	68%
O=C1C[N@@]2CC[N@]3CC[N@@](CC[N@](CC2)Cc2cccc(n2)-c2cn(nn2)Cc2cc(-c4ccccc4)cc(n2)C3)CC(=O)[O][Gd][O]1 [TD875]	0%	0%	0%	0%	0%	0%	0%	0%	0%	0%	0%	0%	0%	6%	98%	58%
